Consider 20 compounds from patent publication US11883537B2, “Sustained release solid dosage forms for modulating the colonic microbiome” (Axial Therapeutics, Inc., priority 2019, dated 2024).

Each structure is given as a SMILES string. Where two headings read alike, the source gives them in different places.

The target in experiment [1] is α-synuclein seeded by E. coli CsgA (Homo sapiens, UniProt P37840). Type of experiment: biochemical. As to conditions: ThT fluorescence, cell-free. The source says: (§1) A compound that inhibits, or that may inhibit, amyloidogenesis is combined with a bacterial amyloid initiator (e.g., E. coli CsgA), or a host-derived amyloidogenic protein (e.g., α-synuclein) and an amyloid precursor in the presence of Thioflavin T (ThT). Separately, as a control, bacterial amyloid initiator, amyloid precursor, and Thioflavin T are combined in the absence of the suspected amyloidogenesis inhibitor. Thioflavin T fluorescence is monitored over time. […] The Tht assay was used with a cell-free assay to assess the effects of compounds on aggregation of α-synuclein of E. coli CsgA, and to assess the effects of compounds on aggregation of α-synuclein seeded by E. coli CsgA.

For experiment [2], the target named is α-synuclein (Homo sapiens, UniProt P37840). The experiment can be described thus: ThT assay, aggregation of α-synuclein. Type of experiment: biochemical.
From the text: as §1

Experiment [3] concerns the target E. coli CsgA (Escherichia coli, UniProt P28307). The experiment can be described thus: ThT assay, aggregation of E. coli CsgA. The note with it: ThT fluorescence, cell-free. Type of experiment: biochemical. An excerpt: A compound that inhibits, or that may inhibit, amyloidogenesis is combined with a bacterial amyloid initiator (e.g., E. coli CsgA), or a host-derived amyloidogenic protein (e.g., α-synuclein) and an amyloid precursor in the presence of Thioflavin T (ThT). Separately, as a control, bacterial amyloid initiator, amyloid precursor, and Thioflavin T are combined in the absence of the suspected amyloidogenesis inhibitor. Thioflavin T fluorescence is monitored over time. A reduction in the rate of increase in Thioflavin T fluorescence, and/or a reduction in the maximum level of Thioflavin T fluorescence in the sample containing the suspected inhibitor, relative to the control sample, confirms that the suspected amyloidogenesis inhibitor is in fact functioning to inhibit amyloid formation. The Tht assay was used with a cell-free assay to assess the effects of compounds on aggregation of α-synuclein of E. coli CsgA, and to assess the effects of compounds on aggregation of α-synuclein seeded by E. coli CsgA. For a detailed description of the ThT assay, see, e.g., International Publication No. WO/2018/213204, which is incorporated by reference herein in its entirety.

For experiment [4], the system named is bacterial curli levels in the gastrointestinal tract. The experiment can be described thus: Murine models, curli content in feces. As to conditions: SPF mice or germ free mice mono-colonized with E. coli MC4100; oral. The experiment is classed as in vivo. As to the method: The following two mouse models were used to evaluate the in vivo activity of test articles (i.e., sustained release solid dosage forms described herein).
Model 1 was performed in selected strains of specific pathogen free (SPF) mice (e.g. Swiss Webster) that carry curli producing bacteria as part of their native gastrointestinal microbiota.
Model 2 was performed in germ free mice that have no native microbiota. In these mice administration, by oral gavage, of a single strain of curli-producing bacteria (e.g. E. coli MC4100) led to stable bacterial colonization of their gastrointestinal tract. […]
To evaluate the ability of test articles to modify bacterial curli levels in the gastrointestinal tract mice, from either Model 1 or 2, were treated with compound typically administered once daily via oral gavage. […] Where appropriate, test articles were evaluated at multiple dose levels, or at greater or lower dosing frequency. […]
To enable the quantitative assessment of test article impact on gastrointestinal curli levels, fecal samples were collected from these treated mice. […]
Assessment of curli content in feces was achieved through one of four approaches: • 1. Quantitative measurement of messenger RNA (mRNA) levels for csgA using a specific qRT-PCR approach. • 2. Quantitative measurement of curli protein levels using fluorescent dyes that bind to amyloid proteins (e.g. ThT, Congo Red, FSB). • 3. […]

The subject of experiment [5] is αSyn amyloid formation. As to conditions: mice; cited from earlier work.

Chain of E. coli CsgA (P28307 21-151): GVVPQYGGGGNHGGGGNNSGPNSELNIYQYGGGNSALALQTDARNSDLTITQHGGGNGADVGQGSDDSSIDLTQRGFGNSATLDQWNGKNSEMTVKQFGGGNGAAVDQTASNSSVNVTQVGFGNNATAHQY

As for `COc1ccccc1O` [guaiacol], the “Inhibition of Aggregation CsgA-seeded αSyn” value in experiment [1] is on record as “++ ((++) is between 30% to 60% inhibition)”. Also, in experiment [2] (ThT fluorescence, cell-free), the “Inhibition of Aggregation αSyn” value was “− ((−) is between −10% to 10% inhibition)”. For the same compound, in experiment [3], the “Inhibition of Aggregation CsgA” value is on record as “− ((−) is between −10% to 10% inhibition)”.

`O=C(/C=C/c1ccc(O)c(O)c1)O[C@H](Cc1ccc(O)c(O)c1)C(=O)O` [rosmarinic acid]: the “Inhibition of Aggregation αSyn” value in experiment [2] (ThT fluorescence, cell-free) is reported as “+++ ((+++) is greater than 60% inhibition)”. Besides, in experiment [3], the “Inhibition of Aggregation CsgA” value is “++ ((++) is between 30% to 60% inhibition)”.

Take `COc1cc(/C=C/C(=O)/C=C(O)/C=C/c2ccc(O)c(OC)c2)ccc1O` [curcumin]: in experiment [1], the “Inhibition of Aggregation CsgA-seeded αSyn” value was “+++ ((+++) is greater than 60% inhibition)”. Also, the “Inhibition of Aggregation αSyn” value in experiment [2] (ThT fluorescence, cell-free) is reported as “+++ ((+++) is greater than 60% inhibition)”.

In the case of `O=c1c(-c2ccc(O)cc2)coc2cc(O)cc(O)c12` [genistein], the “Inhibition of Aggregation αSyn” value in experiment [2] (ThT fluorescence, cell-free) is given as “++ ((++) is between 30% to 60% inhibition)”.

`C=CCc1ccc(OC)c(OC)c1` [4-allyl-1,2-dimethoxy-benzene, 4-allyl-1,2-dimethoxy-benzene]: the “Inhibition of Aggregation CsgA-seeded αSyn” value in experiment [1] was “++ ((++) is between 30% to 60% inhibition)”. Also, the “Inhibition of Aggregation αSyn” value in experiment [2] is recorded as “− ((−) is between −10% to 10% inhibition)”. The “Inhibition of Aggregation CsgA” value in experiment [3] is “− − ((− −) is less than −10% inhibition)”.

Take `C/C=C/c1ccc(O)c(OC)c1` [isoeugenol]: the “Inhibition of Aggregation CsgA-seeded αSyn” value in experiment [1] was “++ ((++) is between 30% to 60% inhibition)”. The “Inhibition of Aggregation αSyn” value in experiment [2] (ThT fluorescence, cell-free) was “− ((−) is between −10% to 10% inhibition)”. In experiment [3], the “Inhibition of Aggregation CsgA” value was “− ((−) is between −10% to 10% inhibition)”.

For `Oc1ccc(/C=C/c2cc(O)cc(O)c2)cc1` [resveratrol], in experiment [2] (ThT fluorescence, cell-free), the “Inhibition of Aggregation αSyn” value was “+++ ((+++) is greater than 60% inhibition)”. For the same compound, the “Inhibition of Aggregation CsgA” value in experiment [3] is reported as “+++ ((+++) is greater than 60% inhibition)”.

For `CCCCCCCCCCCCOC(=O)c1cc(O)c(O)c(O)c1` [lauryl gallate], the “Inhibition of Aggregation CsgA-seeded αSyn” value in experiment [1] is reported as “+ ((+) is between 10% to 30% inhibition)”. For the same compound, the “Inhibition of Aggregation αSyn” value in experiment [2] (ThT fluorescence, cell-free) is on record as “++ ((++) is between 30% to 60% inhibition)”. The “Inhibition of Aggregation CsgA” value in experiment [3] was “− ((−) is between −10% to 10% inhibition)”.

Regarding `O=c1c(O)c(-c2ccc(O)c(O)c2)oc2cc(O)cc(O)c12` [quercetin], the “Inhibition of Aggregation αSyn” value in experiment [2] (ThT fluorescence, cell-free) is given as “+++ ((+++) is greater than 60% inhibition)”. In addition, the “Inhibition of Aggregation CsgA” value in experiment [3] was “++ ((++) is between 30% to 60% inhibition)”.

Regarding `C=CCc1ccc(O)c(OC)c1` [eugenol], the “Inhibition of Aggregation CsgA-seeded αSyn” value in experiment [1] is recorded as “++ ((++) is between 30% to 60% inhibition)”. Moreover, the “Inhibition of Aggregation αSyn” value in experiment [2] (ThT fluorescence, cell-free) is on record as “− ((−) is between −10% to 10% inhibition)”. Further, the “Inhibition of Aggregation CsgA” value in experiment [3] is reported as “− ((−) is between −10% to 10% inhibition)”.

For the compound `Cc1ccc(C(C)C)c(O)c1` [thymol], in experiment [1], the “Inhibition of Aggregation CsgA-seeded αSyn” value was “− ((−) is between −10% to 10% inhibition)”. The “Inhibition of Aggregation αSyn” value in experiment [2] (ThT fluorescence, cell-free) is “− − ((− −) is less than −10% inhibition)”. For the same compound, the “Inhibition of Aggregation CsgA” value in experiment [3] is recorded as “− ((−) is between −10% to 10% inhibition)”.

On to `O=C(O)c1cc(O)c(O)c(O)c1` [gallic acid], for which the “Inhibition of Aggregation CsgA-seeded αSyn” value in experiment [1] is recorded as “+++ ((+++) is greater than 60% inhibition)”. Also, in experiment [2] (ThT fluorescence, cell-free), the “Inhibition of Aggregation αSyn” value is “+++ ((+++) is greater than 60% inhibition)”. Further, in experiment [3], the “Inhibition of Aggregation CsgA” value is reported as “+++ ((+++) is greater than 60% inhibition)”.

`O=c1c(O)c(-c2ccc(O)cc2O)oc2cc(O)cc(O)c12` [morin]: the “Inhibition of Aggregation CsgA-seeded αSyn” value in experiment [1] is listed as “+++ ((+++) is greater than 60% inhibition)”. In experiment [2] (ThT fluorescence, cell-free), the “Inhibition of Aggregation αSyn” value is reported as “+++ ((+++) is greater than 60% inhibition)”. Also, in experiment [3], the “Inhibition of Aggregation CsgA” value is recorded as “+++ ((+++) is greater than 60% inhibition)”.

Take `Brc1cccc(-c2cc(-c3ccc4c(c3)OCO4)n[nH]2)c1` [Anle 138b]: in experiment [3], the “Inhibition of Aggregation CsgA” value was “− ((−) is between −10% to 10% inhibition)”.

Regarding `O=c1cc(-c2ccc(O)cc2)oc2cc(O)cc(O)c12` [apigenin], the “Inhibition of Aggregation αSyn” value in experiment [2] (ThT fluorescence, cell-free) was “++ ((++) is between 30% to 60% inhibition)”.

As for `COc1cc(O)ccc1O` [methoxy- hydroquinone, methoxy-hydroquinone], the “Inhibition of Aggregation CsgA-seeded αSyn” value in experiment [1] is given as “+++ ((+++) is greater than 60% inhibition)”. Moreover, in experiment [2] (ThT fluorescence, cell-free), the “Inhibition of Aggregation αSyn” value is listed as “+++ ((+++) is greater than 60% inhibition)”. Besides, the “Inhibition of Aggregation CsgA” value in experiment [3] was “++ ((++) is between 30% to 60% inhibition)”.

For the compound `O=C(CCc1ccc(O)cc1)c1c(O)cc(O)cc1O` [phloretin], the “Inhibition of Aggregation CsgA-seeded αSyn” value in experiment [1] is recorded as “+ ((+) is between 10% to 30% inhibition)”. The “Inhibition of Aggregation αSyn” value in experiment [2] (ThT fluorescence, cell-free) is given as “++ ((++) is between 30% to 60% inhibition)”. The “Inhibition of Aggregation CsgA” value in experiment [3] is listed as “+ ((+) is between 10% to 30% inhibition)”.

In the case of `O=C(O[C@@H]1Cc2c(O)cc(O)cc2O[C@@H]1c1cc(O)c(O)c(O)c1)c1cc(O)c(O)c(O)c1` [EGCG, epigallocatechin gallate], the “Inhibition of Aggregation CsgA-seeded αSyn” value in experiment [1] is given as “+++ ((+++) is greater than 60% inhibition)”. Also, in experiment [4], the “in vivo activity on fecal curli content” value was “reduce fecal levels of csgA mRNA, CsgA protein, and curli protein”. Also, the “Inhibition of Aggregation αSyn” value in experiment [2] (ThT fluorescence, cell-free) is listed as “+++ ((+++) is greater than 60% inhibition)”. In experiment [5], the motor scores result is “improved motor scores” and the “αSyn amyloid formation in vivo” value was “inhibits or reduces αSyn amyloid formation in mice”. In addition, in experiment [3], the “Inhibition of Aggregation CsgA” value is “++ ((++) is between 30% to 60% inhibition)”.

Consider `CC(Cc1ccc(O)c(O)c1)C(C)Cc1ccc(O)c(O)c1` (centres unmarked) [NDGA], for which the “Inhibition of Aggregation CsgA-seeded αSyn” value in experiment [1] is given as “++ ((++) is between 30% to 60% inhibition)”. Moreover, the “Inhibition of Aggregation αSyn” value in experiment [2] (ThT fluorescence, cell-free) is on record as “++ ((++) is between 30% to 60% inhibition)”. In experiment [3], the “Inhibition of Aggregation CsgA” value was “+ ((+) is between 10% to 30% inhibition)”.

In the case of `Cc1ccc(C(C)C)cc1O` [carvacrol], in experiment [1], the “Inhibition of Aggregation CsgA-seeded αSyn” value is listed as “− ((−) is between −10% to 10% inhibition)”. For the same compound, the “Inhibition of Aggregation αSyn” value in experiment [2] (ThT fluorescence, cell-free) is reported as “− ((−) is between −10% to 10% inhibition)”. In addition, the “Inhibition of Aggregation CsgA” value in experiment [3] was “− − ((− −) is less than −10% inhibition)”.
